From the supplement of paper PMC5844555

Legend:
Test in all cases: 3' UTR reporter interaction score (median-centred robust z-score of log2 firefly/Renilla activity); higher = less repression of the 3' UTR reporter
Settings in all cases: HEK293T; 48 h
BRCA2 = system: BRCA2
Outline: (§1)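 HEK293T cells (10,000/well, 96-well plates) were co-transfected using DharmaFECT Duo with 100 ng firefly luc2P reporter carrying the gene's 3' UTR, 20 ng Renilla pRL-TK control and 2.5 pmol miRNA mimic. Dual-luciferase activities were read 48 h post-transfection. The interaction score is the log-transformed firefly/Renilla ratio as a per-plate robust z-score (median, median absolute deviation), median-centred per miRNA and averaged over at least two independent screens; more negative indicates interaction.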

EZH2 = system: EZH2
Outline: as §1

FBXW7 = system: FBXW7
Outline: as §1

HRAS = system: HRAS
Outline: as §1

MYB = system: MYB
Outline: as §1

MYCN = system: MYCN
Outline: as §1

MYC = system: MYC
Outline: as §1

MYT1L = system: MYT1L
Outline: as §1

NOTCH1 = system: NOTCH1
Outline: as §1

PHF6 = system: PHF6
Outline: as §1

PHOX2B = system: PHOX2B
Outline: as §1

RB1 = system: RB1
Outline: as §1

TP53 = system: TP53
Outline: as §1

ZEB2 = system: ZEB2
Outline: as §1

Sequence | 3' UTR reporter interaction score (BRCA2) | 3' UTR reporter interaction score (EZH2) | 3' UTR reporter interaction score (FBXW7) | 3' UTR reporter interaction score (HRAS) | 3' UTR reporter interaction score (MYB) | 3' UTR reporter interaction score (MYCN) | 3' UTR reporter interaction score (MYC) | 3' UTR reporter interaction score (MYT1L) | 3' UTR reporter interaction score (NOTCH1) | 3' UTR reporter interaction score (PHF6) | 3' UTR reporter interaction score (PHOX2B) | 3' UTR reporter interaction score (RB1) | 3' UTR reporter interaction score (TP53) | 3' UTR reporter interaction score (ZEB2)
CAAAGUUUAAGAUCCUUGAAGU | 0.573 | 0.55 | -0.767 | 0.215 | 0.577 | -0.796 | -0.333 | 0.732 | -0.31 | 0.33 | -2.34 | 0.395 | -0.363 | -0.576
CAACCUGGAGGACUCCAUGCUG | 0.635 | 0.157 | 0.0371 | 0.685 | 1.15 | 0.831 | 0.486 | 0.329 | -0.127 | -0.934 | -0.796 | -2.92 | 0.0572 | 0.335
CAACGGAAUCCCAAAAGCAGCU | -0.135 | 0.561 | -0.229 | 0.275 | -0.0583 | -0.12 | 0.282 | -1.32 | 0.629 | -0.143 | -0.397 | 0.747 | -0.924 | 0.375
CAAGUCACUAGUGGUUCCGUUUA | 0.252 | 0.168 | 1.35 | -1.48 | -0.363 | -0.0757 | -1.07 | -1.25 | 1.15 | -0.71 | 0.0612 | 1.58 | -0.393 | 1.99
CACACACUGCAAUUACUUUUGC | 1.28 | 0.0197 | -1.17 | 0.537 | -0.132 | 0.192 | 0.144 | 0.0502 | -1.12 | -0.242 | 0.662 | -0.83 | 0.266 | -2.35
CACCCGUAGAACCGACCUUGCG | 0.615 | -0.866 | 0.377 | 0.575 | 0.655 | -0.0242 | 0.596 | -0.00069 | -0.125 | -0.967 | -3.87 | -0.00577 | -0.17 | -1.09
CACUCAGCCUUGAGGGCACUUUC | 0.623 | 0.269 | -1.64 | -0.0814 | 1.11 | 1.12 | -1.6 | -1.55 | 0.801 | -4 | 0.0189 | 0.059 | 0.0719 | 0.556
CAGCAGCAAUUCAUGUUUUGAA | 0.886 | -0.709 | -2.64 | -0.93 | -2.05 | -0.622 | -0.0621 | -4.35 | 0.0853 | 2.81 | 1.12 | 0.649 | 0.52 | 0.626
CAGCAGCACACUGUGGUUUGU | 0.267 | -1.21 | -2.99 | -1.05 | -2.62 | -0.42 | 0.347 | -4.01 | -0.283 | 1.13 | 0.464 | -0.141 | -0.308 | 1.1
CAGUAACAAAGAUUCAUCCUUGU | -0.621 | 0.69 | -0.152 | 0.555 | 0.361 | 1.32 | -0.308 | -0.326 | -0.945 | -3.72 | -1.19 | -3.18 | -0.52 | 0.308
CAGUGCAAUGAUGAAAGGGCAU | -0.463 | -0.471 | 0.958 | -0.234 | -1.75 | 1.64 | 0.674 | 0.286 | 0.857 | 0.644 | -0.853 | 1.03 | -0.295 | -0.474
CAGUGCAAUGUUAAAAGGGCAU | -0.00105 | -0.606 | 0.774 | -0.0408 | -1.89 | 1.42 | 0.265 | -0.334 | 0.727 | 0.0914 | 0.897 | 1.55 | -0.31 | -0.231
CAUAAAGUAGAAAGCACUAC | 0.352 | -0.0463 | -0.553 | -0.266 | -0.0675 | -0.0538 | 0.0993 | -0.385 | 0.3 | -0.673 | 0.845 | 0.941 | -0.122 | -0.00923
CAUCCCUUGCAUGGUGGAGGGU | -0.755 | 0.459 | -2.06 | -0.474 | 0.193 | 1.03 | 0.286 | -1.78 | 0.0724 | -0.203 | -0.0949 | -1.51 | 0.105 | -1.03
CAUCUGGAGGUAAGAAGCACUUU | 0.269 | 0.237 | 0.143 | 0.165 | -2.31 | -0.232 | -0.242 | -1.9 | -0.32 | 1.19 | -0.503 | 0.4 | -1.18 | 1.48
CAUCUUACCGGACAGUGCUGGA | 0.868 | 0.0963 | -0.296 | 0.319 | -1.55 | -0.576 | -0.0291 | -0.174 | 0.335 | 0.881 | 0.65 | -0.297 | -0.701 | -2.11
CAUGCCUUGAGUGUAGGACCGU | 0.421 | 0.42 | 0.998 | -0.893 | 0.293 | -0.364 | -1.17 | -1.07 | -0.883 | 1.76 | -1.4 | 0.637 | 0.524 | -1.59
CAUUGCACUUGUCUCGGUCUGA | 0.658 | 0.125 | -0.0954 | -0.416 | -0.142 | -0.0953 | 0.278 | 0.397 | -0.145 | -1.24 | -0.664 | 0.825 | -0.48 | -2.69
CCACACCGUAUCUGACACUUU | -0.654 | -0.643 | 0.287 | -0.828 | -0.254 | 0.101 | -1.37 | 0.0842 | -0.439 | 0.504 | 0.567 | 0.211 | 0.0153 | 1.51
